Data on eleven compounds can be found in ChEMBL document CHEMBL1142182, “Novel Ambler class A beta-lactamase LAP-1 and its association with the plasmid-mediated quinolone resistance determinant QnrS1” (Antimicrob Agents Chemother, 2007).

SMILES strings stand for the structures. Converted amounts (≈) assume the structure as drawn.

For experiment [1], the system named is Escherichia coli. The experiment in a line: Antibacterial activity against Escherichia coli DH10B expressing recombinant beta lactamase LAP1. It is filed as functional.
Experiment [2] has as its system Enterobacter cloacae. As to the kind of experiment: Antibacterial activity against Enterobacter cloacae S3 isolate by agar dilution technique. It counts as functional. (Agar dilution tests growth on a series of plates holding different concentrations.)
The subject of experiment [3] is Enterobacter cloacae.
Description: Activity of Enterobacter cloacae S3 isolate beta lactamase LAP1 expressed in Escherichia coli DH10B
The subject of experiment [4] is Enterobacter cloacae. This is another data set of the same source.
Description: Ratio of kcat to Km of Enterobacter cloacae S3 isolate beta lactamase LAP1 expressed in Escherichia coli DH10B
In experiment [5] the test system is Escherichia coli. As to the kind of experiment: Antibacterial activity against Escherichia coli DH10B. It is filed as functional.
A short description of experiment [6]: Inhibition of Enterobacter cloacae S3 isolate beta lactamase LAP1 expressed in Escherichia coli DH10B.

One may read the MIC as the least concentration at which growth counts as inhibited. For `CO/N=C(\C(=O)N[C@@H]1C(=O)N2C(C(=O)[O-])=C(C[N+]3(C)CCCC3)CS[C@H]12)c1csc(N)n1`, the MIC with Escherichia coli [1] came to 0.12 µg/mL.

One may read the Km as the substrate concentration at which the rate is half of its maximum. What is called kcat/Km is the turnover number divided by the Michaelis constant. Regarding `CC(=O)OCC1=C(C(=O)O)N2C(=O)[C@@H](NC(=O)Cc3cccs3)[C@H]2SC1` [CEPHALOTHIN], the MIC is 16 µg/mL with Escherichia coli [1], above 512 µg/mL against Enterobacter cloacae [2] and 4 µg/mL (≈ 10.1 µM) with Escherichia coli [5]. In the experiment with Enterobacter cloacae [3], the Km was 400 µM. Moreover, the kcat/Km in the experiment on Enterobacter cloacae [4] came to 90000 M⁻¹ s⁻¹.

Take `CO/N=C(\C(=O)N[C@@H]1C(=O)N2C(C(=O)O)=C(COC(C)=O)CS[C@H]12)c1csc(N)n1` [CEFOTAXIME]: the results for the MIC in the experiment with Escherichia coli [1], in the experiment with Enterobacter cloacae [2] and in the experiment on Escherichia coli [5] were 0.12 µg/mL, 0.25 µg/mL (≈ 0.549 µM) and 0.12 µg/mL (≈ 0.263 µM), respectively.

On to `CC1(C)S[C@@H]2[C@H](NC(=O)[C@H](C(=O)O)c3ccsc3)C(=O)N2[C@H]1C(=O)O` [TICARCILLIN], for which the figures for the MIC with Escherichia coli [1], against Enterobacter cloacae [2] and in the experiment with Escherichia coli [5] were 512 µg/mL, above 512 µg/mL and 4 µg/mL (≈ 10.4 µM), respectively.

With `CO/N=C(\C(=O)N[C@@H]1C(=O)N2C(C(=O)O)=C(COC(N)=O)CS[C@H]12)c1ccco1` [CEFUROXIME], the MIC with Escherichia coli [1] stood at 8 µg/mL; against Enterobacter cloacae [2], 256 µg/mL (≈ 603 µM); in the experiment with Escherichia coli [5], 2 µg/mL (≈ 4.71 µM). In the experiment on Enterobacter cloacae [3], the Km is above 2000 µM. For the same compound, the kcat/Km with Enterobacter cloacae [4] is above 50000 M⁻¹ s⁻¹.

As to `CC(C)(O/N=C(\C(=O)N[C@@H]1C(=O)N2C(C(=O)[O-])=C(C[n+]3ccccc3)CS[C@H]12)c1csc(N)n1)C(=O)O` [CEFTAZIDIME], the values for the MIC with Escherichia coli [1], against Enterobacter cloacae [2] and in the experiment on Escherichia coli [5] were 0.12 µg/mL, 0.5 µg/mL (≈ 0.915 µM) and 0.06 µg/mL (≈ 0.11 µM), respectively.

As usually defined, the IC50 is the midpoint of a concentration-inhibition curve. A lower IC50 goes with greater potency in that assay. For the compound `CC1(C)S[C@@H]2[C@H](NC(=O)Cc3ccccc3)C(=O)N2[C@H]1C(=O)O` [PENICILLIN G], the Km with Enterobacter cloacae [3] amounted to 20 µM. In addition, the IC50 in experiment [6] was 0.08 µM. For the same compound, in the experiment on Enterobacter cloacae [4], the kcat/Km is 1e+07 M⁻¹ s⁻¹.

Turning to `CC1(C)S[C@@H]2[C@H](NC(=O)[C@H](N)c3ccc(O)cc3)C(=O)N2[C@H]1C(=O)O` [AMOXICILLIN], the MIC was 512 µg/mL in the experiment with Escherichia coli [1], above 512 µg/mL against Enterobacter cloacae [2] and 4 µg/mL (≈ 10.9 µM) against Escherichia coli [5]. The Km in the experiment with Enterobacter cloacae [3] was 180 µM. Moreover, the kcat/Km in the experiment on Enterobacter cloacae [4] was 3.3e+06 M⁻¹ s⁻¹.

`CO[C@@]1(NC(=O)Cc2cccs2)C(=O)N2C(C(=O)O)=C(COC(N)=O)CS[C@@H]21` [CEFOXITIN]: the minimum inhibitory concentration (MIC) turned out to be 4 µg/mL in the experiment with Escherichia coli [1], 256 µg/mL (≈ 599 µM) against Enterobacter cloacae [2] and 4 µg/mL (≈ 9.36 µM) against Escherichia coli [5].

In the case of `CCN1CCN(C(=O)N[C@@H](C(=O)N[C@@H]2C(=O)N3[C@@H]2SC(C)(C)[C@@H]3C(=O)O)c2ccccc2)C(=O)C1=O` [PIPERACILLIN], the results for the MIC in the experiment with Escherichia coli [1], against Enterobacter cloacae [2] and against Escherichia coli [5] were 4 µg/mL, 16 µg/mL (≈ 30.9 µM) and 1 µg/mL (≈ 1.93 µM), respectively. Also, in the experiment on Enterobacter cloacae [3], the Km was 50 µM. Further, the kcat/Km with Enterobacter cloacae [4] was found to be 1.5e+06 M⁻¹ s⁻¹.

In the experiment with Enterobacter cloacae [2], `C[C@@H](O)[C@H]1C(=O)N2C(C(=O)O)=C(SCCNC=N)C[C@H]12` [IMIPENEM ANHYDROUS] displayed an MIC of 0.12 µg/mL (≈ 0.401 µM).
